From ChEMBL document CHEMBL3870347, “Antimycobacterial activity of novel hydrazide-hydrazone derivatives with 2H-chromene and coumarin scaffold” (Bioorg Med Chem Lett, 2017)
≈ marks a conversion by molar mass, not a printed value. Structures can show the parent of a compound that is named as a salt.

Assays:
[1] = tested on: Mycobacterium tuberculosis; experiment: Antimycobacterial activity against Mycobacterium tuberculosis H37Rv after 45 days; type: functional
[2] = Cytotoxicity against HEK293T cells assessed as decrease in cell viability after 72 hrs by MTT assay; type: toxicity, cell-based, HEK-293T; settings: human
[3] = Selectivity index, ratio of IC50 for HEK293T cells to MIC for Mycobacterium tuberculosis H37Rv; type: toxicity, cell-based, HEK-293T; settings: human, read-out: Selectivity Index

SMILES | MIC [1] [µM] | IC50 at 72 h [2] [µM] | selectivity ratio [3]
CC1Oc2ccccc2C=C1/C=N/NC(=O)c1ccccc1 (centres undefined) | 6.84 (≈ 2 µg/mL) | 23.3 | –
CC1Oc2ccccc2C=C1/C=N/NC(=O)c1ccncc1 (centres undefined) | 0.17 (≈ 0.0499 µg/mL) | 76.3 | 449
CC1Oc2ccccc2C=C1/C=N/NC(=O)c1ccc(O)cc1 (centres undefined) | 0.64 (≈ 0.197 µg/mL) | 48.8 | 76.2
O=C(N/N=C/c1c(Cl)c2ccccc2oc1=O)c1ccc(F)cc1 | 1.45 (≈ 0.5 µg/mL) | 26.2 | –
CC1Oc2ccccc2C=C1/C=N/NC(=O)c1ccc(Cl)cc1 (centres undefined) | > 6.12 | – | –
O=C(N/N=C/C1=Cc2ccccc2OC1c1ccccc1)c1ccc(F)cc1 (centres undefined) | 1.34 (≈ 0.499 µg/mL) | 30.9 | –
CC1Oc2ccccc2C=C1/C=N/NC(=O)c1cccs1 (centres undefined) | > 6.7 | – | –
O=C(N/N=C/C1=Cc2ccccc2OC1c1ccccc1)c1cccs1 (centres undefined) | > 5.54 | – | –
COc1ccc(C(=O)N/N=C/C2=Cc3ccccc3OC2)cc1 | 6.48 (≈ 2 µg/mL) | 36 | –
O=C(N/N=C/c1c(Cl)c2ccccc2oc1=O)c1ccc(O)cc1 | 5.83 (≈ 2 µg/mL) | 33.1 | –
O=C(N/N=C/C1=Cc2ccccc2OC1c1ccccc1)c1ccc(Cl)cc1 (centres undefined) | > 5.14 | 13.2 | –
COc1ccc(C(=O)N/N=C/C2=Cc3ccccc3OC2c2ccccc2)cc1 (centres undefined) | 0.13 (≈ 0.05 µg/mL) | 90.7 | 697
O=C(N/N=C/c1c(Cl)c2ccccc2oc1=O)c1ccccc1 | 6.12 (≈ 2 µg/mL) | 28.6 | –
COc1ccc(C(=O)N/N=C/C2=Cc3ccccc3OC2C)cc1 (centres undefined) | 6.2 (≈ 2 µg/mL) | – | –
O=C(N/N=C/c1c(Cl)c2ccccc2oc1=O)c1ccncc1 | 6.1 (≈ 2 µg/mL) | 12.6 | –
O=C(N/N=C/C1=Cc2ccccc2OC1)c1ccco1 | 0.74 (≈ 0.199 µg/mL) | 47.3 | 63.9
CC1Oc2ccccc2C=C1/C=N/NC(=O)c1ccco1 (centres undefined) | 0.18 (≈ 0.0508 µg/mL) | 21.2 | 118
Cc1nnsc1C(=O)N/N=C/C1=Cc2ccccc2OC1c1ccccc1 (centres undefined) | 0.53 (≈ 0.2 µg/mL) | 30.2 | 56.9
O=C(N/N=C/C1=Cc2ccccc2OC1)c1ccc(Cl)cc1 | 6.39 (≈ 2 µg/mL) | – | –
O=C(N/N=C/C1=Cc2ccccc2OC1c1ccccc1)c1ccco1 (centres undefined) | 0.15 (≈ 0.0517 µg/mL) | 11.9 | 79.4
Cc1nnsc1C(=O)N/N=C/c1c(Cl)c2ccccc2oc1=O | 0.67 (≈ 0.234 µg/mL) | 30.2 | 45
O=C(N/N=C/C1=Cc2ccccc2OC1)c1cccs1 | 7.03 (≈ 2 µg/mL) | 22.1 | –
CC[C@@H](CO)NCCN[C@@H](CC)CO [ETHAMBUTOL HYDROCHLORIDE] | 7.64 | – | –
NNC(=O)c1ccncc1 [ISONIAZID] | 1.45 (≈ 0.199 µg/mL) | – | –
